Measurements as given in PubChem BioAssay (NCI).
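1) Cells in 96-well plates. 2) Compound, 48 h, 5 concentrations. 3) Linear interpolation between surrounding doses. 4) Unreached endpoint = highest concentration. Definition used: TGI = concentration required for complete inhibition of growth.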

Key:
Assay in all cases: NCI anticancer screen, dose series, 48 h
[1] = system: CAKI-1 renal
[2] = system: HOP-92 NSCLC
[3] = system: U251 CNS
[4] = system: NCI-H460 lung
[5] = system: SF-268 CNS
[6] = system: RXF 393 renal
[7] = system: UO-31 renal
[8] = system: CCRF-CEM leukemia
[9] = system: SNB-75 CNS
[10] = system: MCF7 breast
[11] = system: SF-539 CNS
[12] = system: NCI-H522 lung
[13] = system: K-562 leukemia
[14] = system: HL-60(TB) leukemia
[15] = system: UACC-257 melanoma
[16] = system: SR leukemia
[17] = system: MDA-N
[18] = system: KM12 colon
[19] = system: ACHN renal
[20] = system: HCC-2998 colon
[21] = system: MALME-3M melanoma
[22] = system: A549 NSCLC
[23] = system: M14 melanoma
[24] = system: LOX IMVI melanoma
[25] = system: NCI-H226 lung
[26] = system: NCI/ADR-RES ovarian
[27] = system: IGROV1 ovarian
[28] = system: 786-0 renal
[29] = system: SW-620 colon
[30] = system: HT29 colon
[31] = system: HCT-15 colon
[32] = system: SK-MEL-28 melanoma
[33] = system: SNB-19 CNS
[34] = system: SK-MEL-5 melanoma
[35] = system: MDA-MB-231 breast
[36] = system: SF-295 CNS
[37] = system: MDA-MB-435
[38] = system: HCT-116 colon
[39] = system: A498 renal
[40] = system: MOLT-4 leukemia
[41] = system: DU-145 prostate
[42] = system: HS 578T breast
[43] = system: BT-549 breast
[44] = system: OVCAR-8 ovarian
[45] = system: NCI-H23 lung
[46] = system: UACC-62 melanoma
[47] = system: T-47D breast
[48] = system: SN12C renal
[49] = system: EKVX NSCLC
[50] = system: HOP-62 NSCLC
[51] = system: OVCAR-3 ovarian
[52] = system: OVCAR-5 ovarian
[53] = system: RPMI-8226 leukemia
[54] = system: SK-MEL-2 melanoma
[55] = system: OVCAR-4 ovarian
[56] = system: COLO 205 colon
[57] = system: PC-3 prostate
[58] = system: TK-10 renal
[59] = system: SK-OV-3 ovarian

## CCOC(=O)C1CCC(=O)N1C(=O)c1ccc(Cl)cc1 (stereo unspecified)
[1]
  TGI: > 100 µM
[2]
  TGI: > 100 µM
[3]
  TGI: > 100 µM
[4]
  TGI: > 100 µM
[5]
  TGI: > 100 µM
[6]
  TGI: > 100 µM
[7]
  TGI: > 100 µM
[8]
  TGI: > 100 µM
[9]
  TGI: > 100 µM
[10]
  TGI: > 100 µM
[11]
  TGI: > 100 µM
[12]
  TGI: > 100 µM
[13]
  TGI: > 100 µM
[14]
  TGI: > 100 µM
[15]
  TGI: > 100 µM
[16]
  TGI: > 100 µM
[17]
  TGI: > 100 µM
[18]
  TGI: > 100 µM
[19]
  TGI: > 100 µM
[20]
  TGI: > 100 µM
[21]
  TGI: > 100 µM
[22]
  TGI: > 100 µM
[23]
  TGI: > 100 µM
[24]
  TGI: > 100 µM
[25]
  TGI: > 100 µM
[26]
  TGI: > 100 µM
[27]
  TGI: > 100 µM
[28]
  TGI: > 100 µM
[29]
  TGI: > 100 µM
[30]
  TGI: > 100 µM
[31]
  TGI: > 100 µM
[32]
  TGI: > 100 µM
[33]
  TGI: > 100 µM
[34]
  TGI: > 100 µM
[35]
  TGI: > 100 µM
[36]
  TGI: > 100 µM
[37]
  TGI: > 100 µM
[38]
  TGI: > 100 µM
[39]
  TGI: > 100 µM
[40]
  TGI: > 100 µM
[41]
  TGI: > 100 µM
[42]
  TGI: > 100 µM
[43]
  TGI: > 100 µM
[44]
  TGI: > 100 µM
[45]
  TGI: > 100 µM
[46]
  TGI: > 100 µM
[47]
  TGI: > 100 µM
[48]
  TGI: > 100 µM
[49]
  TGI: > 100 µM
[50]
  TGI: > 100 µM
[51]
  TGI: > 100 µM
[52]
  TGI: > 100 µM
[53]
  TGI: > 100 µM

## C[C@]12CCC3=NCCN3C1=CC[C@@H]1[C@@H]2CC[C@@]2(C)[C@H]1CC[C@]2(C)O
[1]
  TGI: > 100 µM
[2]
  TGI: > 100 µM
[3]
  TGI: > 100 µM
[54]
  TGI: > 100 µM
[4]
  TGI: > 100 µM
[5]
  TGI: > 100 µM
[6]
  TGI: 66.4 µM
[7]
  TGI: > 100 µM
[9]
  TGI: > 100 µM
[10]
  TGI: > 100 µM
[11]
  TGI: 80 µM
[12]
  TGI: > 100 µM
[13]
  TGI: > 100 µM
[15]
  TGI: 73.1 µM
[16]
  TGI: > 100 µM
[17]
  TGI: > 100 µM
[18]
  TGI: > 100 µM
[55]
  TGI: > 100 µM
[19]
  TGI: > 100 µM
[21]
  TGI: 53.5 µM
[22]
  TGI: > 100 µM
[23]
  TGI: > 100 µM
[24]
  TGI: > 100 µM
[25]
  TGI: 96.3 µM
[26]
  TGI: > 100 µM
[56]
  TGI: 75.5 µM
[27]
  TGI: > 100 µM
[28]
  TGI: 32.4 µM
[57]
  TGI: > 100 µM
[29]
  TGI: > 100 µM
[30]
  TGI: > 100 µM
[31]
  TGI: > 100 µM
[32]
  TGI: 99.6 µM
[33]
  TGI: > 100 µM
[34]
  TGI: 35.6 µM
[35]
  TGI: > 100 µM
[58]
  TGI: > 100 µM
[36]
  TGI: 42.6 µM
[37]
  TGI: > 100 µM
[38]
  TGI: > 100 µM
[39]
  TGI: 77.6 µM
[40]
  TGI: > 100 µM
[41]
  TGI: > 100 µM
[42]
  TGI: 74.7 µM
[43]
  TGI: > 100 µM
[44]
  TGI: > 100 µM
[45]
  TGI: > 100 µM
[59]
  TGI: > 100 µM
[46]
  TGI: 76.4 µM
[47]
  TGI: > 100 µM
[48]
  TGI: > 100 µM
[49]
  TGI: > 100 µM
[50]
  TGI: > 100 µM
[51]
  TGI: > 100 µM
[52]
  TGI: > 100 µM
[53]
  TGI: 70.8 µM

## CCCCCCCc1ccc(-c2nnc(N=Nc3ccc(OCCCCC)cc3)s2)s1
[1]
  TGI: > 100 µM
[3]
  TGI: > 100 µM
[54]
  TGI: > 100 µM
[4]
  TGI: > 100 µM
[5]
  TGI: > 100 µM
[6]
  TGI: > 100 µM
[7]
  TGI: > 100 µM
[8]
  TGI: > 100 µM
[9]
  TGI: > 100 µM
[10]
  TGI: > 100 µM
[11]
  TGI: > 100 µM
[12]
  TGI: > 100 µM
[14]
  TGI: > 100 µM
[15]
  TGI: > 100 µM
[17]
  TGI: > 100 µM
[18]
  TGI: > 100 µM
[55]
  TGI: > 100 µM
[19]
  TGI: > 100 µM
[20]
  TGI: > 100 µM
[21]
  TGI: > 100 µM
[22]
  TGI: > 100 µM
[23]
  TGI: > 100 µM
[25]
  TGI: > 100 µM
[26]
  TGI: > 100 µM
[56]
  TGI: > 100 µM
[27]
  TGI: > 100 µM
[28]
  TGI: > 100 µM
[57]
  TGI: > 100 µM
[29]
  TGI: > 100 µM
[30]
  TGI: > 100 µM
[31]
  TGI: > 100 µM
[32]
  TGI: > 100 µM
[33]
  TGI: > 100 µM
[34]
  TGI: > 100 µM
[35]
  TGI: > 100 µM
[58]
  TGI: > 100 µM
[36]
  TGI: > 100 µM
[37]
  TGI: > 100 µM
[38]
  TGI: > 100 µM
[39]
  TGI: > 100 µM
[40]
  TGI: > 100 µM
[41]
  TGI: > 100 µM
[42]
  TGI: > 100 µM
[43]
  TGI: > 100 µM
[45]
  TGI: > 100 µM
[59]
  TGI: > 100 µM
[46]
  TGI: > 100 µM
[47]
  TGI: > 100 µM
[48]
  TGI: > 100 µM
[49]
  TGI: > 100 µM
[50]
  TGI: > 100 µM
[51]
  TGI: > 100 µM
[52]
  TGI: > 100 µM
[53]
  TGI: > 100 µM

## Cn1c(=O)c2c(nc(N/N=C3/SCC(=O)N3Cc3ccccc3)n2C)n(C)c1=O
[1]
  TGI: > 100 µM
[2]
  TGI: 78.7 µM
[3]
  TGI: > 100 µM
[54]
  TGI: > 100 µM
[4]
  TGI: > 100 µM
[5]
  TGI: > 100 µM
[6]
  TGI: > 100 µM
[7]
  TGI: > 100 µM
[8]
  TGI: > 100 µM
[10]
  TGI: > 100 µM
[11]
  TGI: > 100 µM
[12]
  TGI: > 100 µM
[13]
  TGI: > 100 µM
[15]
  TGI: > 100 µM
[17]
  TGI: > 100 µM
[18]
  TGI: > 100 µM
[55]
  TGI: > 100 µM
[19]
  TGI: > 100 µM
[20]
  TGI: > 100 µM
[21]
  TGI: > 100 µM
[22]
  TGI: > 100 µM
[23]
  TGI: > 100 µM
[25]
  TGI: > 100 µM
[26]
  TGI: > 100 µM
[56]
  TGI: > 100 µM
[27]
  TGI: > 100 µM
[28]
  TGI: > 100 µM
[57]
  TGI: > 100 µM
[30]
  TGI: > 100 µM
[31]
  TGI: > 100 µM
[32]
  TGI: > 100 µM
[33]
  TGI: > 100 µM
[34]
  TGI: > 100 µM
[35]
  TGI: > 100 µM
[58]
  TGI: > 100 µM
[36]
  TGI: > 100 µM
[37]
  TGI: > 100 µM
[38]
  TGI: > 100 µM
[39]
  TGI: > 100 µM
[41]
  TGI: > 100 µM
[42]
  TGI: > 100 µM
[43]
  TGI: > 100 µM
[44]
  TGI: > 100 µM
[45]
  TGI: > 100 µM
[59]
  TGI: > 100 µM
[46]
  TGI: > 100 µM
[47]
  TGI: > 100 µM
[48]
  TGI: > 100 µM
[49]
  TGI: > 100 µM
[50]
  TGI: > 100 µM
[51]
  TGI: 90.4 µM
[52]
  TGI: > 100 µM
[53]
  TGI: 66.3 µM
